PubChem BioAssay (NCI)
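A five-concentration, 48-hour dose response in 96-well plates underlies each endpoint, interpolated linearly between surrounding concentrations. Abbreviation: GI50, concentration required for 50% inhibition of growth. TGI denotes the concentration required for complete inhibition of growth.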

Assays:
Assay in all cases: growth of human tumour cells (NCI), 48 h; in the data active means GI50 below about 0.43 µM; inactive means the rest
[1] = system: 786-0 renal
[2] = system: HS 578T breast
[3] = system: IGROV1 ovarian
[4] = system: K-562 leukemia
[5] = system: KM12 colon
[6] = system: NCI-H522 lung
[7] = system: OVCAR-5 ovarian
[8] = system: SF-539 CNS
[9] = system: SK-MEL-2 melanoma
[10] = system: UO-31 renal

CC1=NN(c2nc(N)nc(CO)n2)C(C)(C)C1
> 100 µM: TGI [1] | TGI [2] | TGI [3] | TGI [4] | TGI [5] | TGI [6] | TGI [7] | TGI [8] | TGI [9] | TGI [10]

Cc1cccc2c(=O)c3c(O)cc(O)cc3n(C)c12
> 100 µM: TGI [1] | TGI [2] | TGI [3] | TGI [4] | TGI [5] | TGI [6] | TGI [7] | TGI [8] | TGI [9]

O=C1NC(N2CCCC(CO)C2)=N/C1=C\c1cccs1 (stereo not drawn)
> 100 µM: TGI [1] | TGI [2] | TGI [3] | TGI [4] | TGI [5] | TGI [6] | TGI [7] | TGI [8] | TGI [9] | TGI [10]

COC1OC2COC(=O)c3cc(O)c(O)c(O)c3-c3c(cc(O)c(O)c3O)C(=O)OC2C(O)C1O (stereo not drawn)
> 100 µM: TGI [1] | TGI [2] | TGI [3] | TGI [4] | TGI [5] | TGI [6] | TGI [7] | TGI [8] | TGI [9] | TGI [10]

Nc1nc(SCc2ccccc2Cl)c2ncn(C3OC(CO)C(O)C3O)c2n1 (stereo not drawn)
> 100 µM: TGI [1] | TGI [3] | TGI [4] | TGI [5] | TGI [6] | TGI [7] | TGI [8] | TGI [9] | TGI [10]

NC(CCC(=O)c1ccccn1)C(=O)O (stereo not drawn)
> 100 µM: TGI [1] | TGI [2] | TGI [3] | TGI [5] | TGI [6] | TGI [7] | TGI [8] | TGI [9] | TGI [10]

CC(=O)OC1CCn2c1nc1cc([N+](=O)[O-])c(C)cc12 (stereo not drawn)
> 100 µM: TGI [1] | TGI [2] | TGI [3] | TGI [4] | TGI [5] | TGI [6] | TGI [8] | TGI [9] | TGI [10]

NC(Cc1ccccc1)C(=O)OCN1C(=O)C2C3C=CC(C2C1=O)C1C(=O)N(COC(=O)C(N)Cc2ccccc2)C(=O)C31 (stereo not drawn)
> 100 µM: TGI [1] | TGI [2] | TGI [3] | TGI [6] | TGI [7] | TGI [8] | TGI [10]
52 µM: TGI [9]
74.6 µM: TGI [4]

CC(=O)Oc1ccc2cc(Oc3cc(Cl)c(Cl)cc3Cl)c(=O)oc2c1
65 µM: TGI [2]
34.6 µM: TGI [6]
71.2 µM: TGI [7]
25.9 µM: TGI [4] | TGI [10]
29 µM: TGI [1]
31.2 µM: TGI [8]
32.1 µM: TGI [3]
25.6 µM: TGI [5]

COc1cccc(NC(=O)CC(=O)NN)c1
> 100 µM: TGI [1] | TGI [2] | TGI [3] | TGI [4] | TGI [5] | TGI [6] | TGI [7] | TGI [8] | TGI [9] | TGI [10]

[CH3][Sn]([CH3])([CH3])[S]C(=S)N1CCOCC1
11.1 µM: TGI [5]
5.84 µM: TGI [4]
> 25.1 µM: TGI [10]
inactive: GI50 [3] 0.69 µM | GI50 [5] 2.11 µM | GI50 [7] 2.5 µM | GI50 [9] 1.51 µM | GI50 [10] 6.24 µM
4.75 µM: TGI [9]
8.52 µM: TGI [3]
0.42 µM: TGI [6]
active: GI50 [4] 0.36 µM | GI50 [6] 0.102 µM
> 28.2 µM: TGI [7]
